Measured values as given in PubChem BioAssay AID1919016 (Molecular Pharmacology Branch, DTP, NCI, 2023).
Values joined by “and” are separate entries in the source; they are usually repeats but may differ in a detail not shown here. Equal entries are not always repeated. Values belong to the compound of their own block, whether it stands above or below them.

System: NCI-H196 complex spheroid growth, percent test/control
Test: Anticancer human tumor NCI-H196 cell line growth inhibition [AhR];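 note: seven days of drug exposure starting three days after plating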;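 for viability, T/C: 100% = DMSO vehicle control wells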
Conditions: for viability, T/C: stronger effect = lower value
Summary of the method: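 Spheroids combined tumor cells with HUVEC endothelial cells and human MSCs as stroma. AhR antagonists were paired with standard or investigational drugs, each dosed in half-log steps down from near clinical Cmax, or from 10 microM where Cmax was unknown.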

[1] = curve of first compound, second compound 0.1 µM
[2] = curve of first compound, second compound 0.316 µM
[3] = curve of first compound, second compound 1 µM
[4] = curve of first compound, second compound 3.16 µM
[5] = curve of first compound, second compound 10 µM
[6] = second compound 0.1 µM, first compound 0.0316 µM
[7] = second compound 0.1 µM, first compound 0.1 µM
[8] = second compound 0.1 µM, first compound 0.316 µM
[9] = second compound 0.1 µM, first compound 1 µM
[10] = second compound 0.1 µM, first compound 3.16 µM
[11] = second compound 0.1 µM, first compound 10 µM
[12] = second compound 0.316 µM, first compound 0.0316 µM
[13] = second compound 0.316 µM, first compound 0.1 µM
[14] = second compound 0.316 µM, first compound 0.316 µM
[15] = second compound 0.316 µM, first compound 1 µM
[16] = second compound 0.316 µM, first compound 3.16 µM
[17] = second compound 0.316 µM, first compound 10 µM
[18] = second compound 1 µM, first compound 0.0316 µM
[19] = second compound 1 µM, first compound 0.1 µM
[20] = second compound 1 µM, first compound 0.316 µM
[21] = second compound 1 µM, first compound 1 µM
[22] = second compound 1 µM, first compound 3.16 µM
[23] = second compound 1 µM, first compound 10 µM
[24] = second compound 3.16 µM, first compound 0.0316 µM
[25] = second compound 3.16 µM, first compound 0.1 µM
[26] = second compound 3.16 µM, first compound 0.316 µM
[27] = second compound 3.16 µM, first compound 1 µM
[28] = second compound 3.16 µM, first compound 3.16 µM
[29] = second compound 3.16 µM, first compound 10 µM
[30] = second compound 10 µM, first compound 0.0316 µM
[31] = second compound 10 µM, first compound 0.1 µM
[32] = second compound 10 µM, first compound 0.316 µM
[33] = second compound 10 µM, first compound 1 µM
[34] = second compound 10 µM, first compound 3.16 µM
[35] = second compound 10 µM, first compound 10 µM

IC50 [1]: > 10 µM | IC50 [2]: > 10 µM | IC50 [3]: > 10 µM | IC50 [4]: > 10 µM | IC50 [5]: > 10 µM
Compound: COc1cc(C2c3cc4c(cc3C(OC3OC5COC(C)OC5C(O)C3O)C3COC(=O)C23)OCO4)cc(OC)c1O (configuration not stated) + CC(CO)NC(=O)c1cc(-c2ccc(Cl)cc2)nn(-c2cnn(C)c2)c1=O
viability, T/C [6]: 113% | viability, T/C [7]: 116% | viability, T/C [8]: 101% | viability, T/C [9]: 112% | viability, T/C [10]: 104% | viability, T/C [11]: 101% | viability, T/C [12]: 109% | viability, T/C [13]: 118% | viability, T/C [14]: 102% | viability, T/C [15]: 104% | viability, T/C [16]: 109% | viability, T/C [17]: 94.9% | viability, T/C [18]: 117% | viability, T/C [19]: 106% | viability, T/C [20]: 119% | viability, T/C [21]: 106% | viability, T/C [22]: 110% | viability, T/C [23]: 105% | viability, T/C [24]: 103% | viability, T/C [25]: 110% | viability, T/C [26]: 119% | viability, T/C [27]: 110% | viability, T/C [28]: 117% | viability, T/C [29]: 97.9% | viability, T/C [30]: 126% | viability, T/C [31]: 128% | viability, T/C [32]: 114% | viability, T/C [33]: 109% | viability, T/C [34]: 115% | viability, T/C [35]: 95.6%

IC50 (curve of compound): > 10 µM
Compound: CC(C)c1c(-c2ccccc2)nc2c(C#N)c[nH]n2c1=O
viability, T/C (compound 0.0316 µM): 97.3% and 97% and 111% | viability, T/C (compound 0.1 µM): 104% and 102% and 106% | viability, T/C (compound 0.316 µM): 109% and 92.1% and 112% | viability, T/C (compound 1 µM): 102% (2×) and 101% | viability, T/C (compound 3.16 µM): 101% and 102% and 110% | viability, T/C (compound 10 µM): 103% and 97.7% and 96.4%

IC50 [1]: > 10 µM | IC50 [2]: > 10 µM | IC50 [3]: > 10 µM | IC50 [4]: > 10 µM | IC50 [5]: > 10 µM
Compound: CC1(C)CCC(CN2CCN(c3ccc(C(=O)NS(=O)(=O)c4ccc(NCC5CCOCC5)c([N+](=O)[O-])c4)c(Oc4cnc5[nH]ccc5c4)c3)CC2)=C(c2ccc(Cl)cc2)C1 + Cc1cncc(-c2nc(NCCc3c[nH]c4ccccc34)c3ncn(C(C)C)c3n2)c1
viability, T/C [6]: 98.3% | viability, T/C [7]: 97.8% | viability, T/C [8]: 89.4% | viability, T/C [9]: 98.6% | viability, T/C [10]: 96.5% | viability, T/C [11]: 107% | viability, T/C [12]: 106% | viability, T/C [13]: 96% | viability, T/C [14]: 95.7% | viability, T/C [15]: 93.1% | viability, T/C [16]: 105% | viability, T/C [17]: 108% | viability, T/C [18]: 91.7% | viability, T/C [19]: 101% | viability, T/C [20]: 108% | viability, T/C [21]: 97.1% | viability, T/C [22]: 103% | viability, T/C [23]: 105% | viability, T/C [24]: 115% | viability, T/C [25]: 105% | viability, T/C [26]: 105% | viability, T/C [27]: 108% | viability, T/C [28]: 95% | viability, T/C [29]: 104% | viability, T/C [30]: 87.8% | viability, T/C [31]: 97.9% | viability, T/C [32]: 107% | viability, T/C [33]: 118% | viability, T/C [34]: 105% | viability, T/C [35]: 101%
